Results published in patent publication US6893630B2, “Anti-microbial antiperspirant products” (Unilever Home & Personal Care USA, division of Conopco, Inc., priority 2000, dated 2005).
“Also recorded” adds a separate entry of the source. Where two headings read alike, the source gives them in different places.

What was measured:
[1] = test system: Staphylococcus epidermidis; experiment: Anti-microbial performance of chelators: growth inhibition in semi-synthetic medium by optical density; assay type: cell-based; conditions: for "micro-molar active" criterion (significant inhibition of growth, at least 30%, at 3×10^−6 mol.dm^−3 or less): S. epidermidis; for Inhibition of growth (%): chelator 3×10^−6 mol.dm^−3, 16 hours at 37° C., optical density at 600 nm vs control medium
Method: An axillary isolate of Staphylococcus epidermidis was grown overnight in 100 ml of tryptone soy broth (TSB, Oxoid Ltd). 10 ml of this culture was taken and subjected to centrifugation. The separated cells were re-suspended in 10 ml of phosphate buffered saline and the centrifugation procedure repeated. The washed cells were re-suspended in 10 ml of phosphate buffered saline to give the inoculum. 100 μl of the inoculum was added to 100 ml of semi-synthetic medium (SSM) containing (NH4)2SO4 (0.066 g), MgSO4.7H2O (0.012 g), KCl (0.1 g), KH2PO4 (0.27 g), Na2HPO4 (1.43 g), thiamin (0.1 mg), biotin (0.05 mg), Peptone P (0.05 g), and glucose (2.0 mmole) which had been previously sterilised by autoclaving at 121° C. for 20 minutes. The pH of the SSM was adjusted to 6.7 with HCl after sterilisation, prior to addition of the inoculum. This control medium was utilised in all of the in vitro inhibition studies. The chelator-containing test media were prepared in a similar manner, the chelator being introduced at a concentration of 3×10^−6 mol.dm^−3 before the pH adjustment with HCl.
100 μl of the S. epidermidis inoculum was introduced into the control medium and into test media containing the chelators indicated in Table 2. The cultures were inoculated at 37° C. (with agitation at 200 rpm) for 16 hours, and the optical density of the cultures measured at 600 nm to determine the extent of bacterial growth. By comparison of the optical density of the culture in the presence of chelating agent, to that of the control, the percentage inhibition of growth was established. (Optical density measurements were made on 1 in 4 dilutions of the cultures with 0.9% (w/v) saline, using 1 cm path length cuvettes, on a Pharmacia Biotech Ultrospec 200 Spectrophotometer.)

relevant micro-organism = conditions: cited from earlier work

O=C(O)CN(CCN(CC(=O)O)CC(=O)O)CC(=O)O [EDTA, ethylenediaminetetraacetic acid]
"micro-molar active" criterion (significant inhibition of growth, at least 30%, at 3×10^−6 mol.dm^−3 or less) [1]: exclude; also recorded: fail this criterion | Inhibition of growth (%) [1]: 0%

O=C(O)CN(CCN(CCN(CC(=O)O)CC(=O)O)CC(=O)O)CCN(CC(=O)O)CC(=O)O [TTHA, triethylenetetraaminehexaacetic acid]
"micro-molar active" criterion (significant inhibition of growth, at least 30%, at 3×10^−6 mol.dm^−3 or less) [1]: capable of achieving significant inhibition; also recorded: meet the criterion | Inhibition of growth (%) [1]: 56.3%

O=C(O)CN(CC(=O)O)[C@@H]1CCCC[C@H]1N(CC(=O)O)CC(=O)O (relative stereo) [CDTA, trans-1,2-diaminocyclohexane-N,N,N′,N′-tetraacetic acid]
"micro-molar active" criterion (significant inhibition of growth, at least 30%, at 3×10^−6 mol.dm^−3 or less) [1]: exclude; also recorded: fail this criterion | Inhibition of growth (%) [1]: 12.3%

CC(C)=CCCC(C)=CCCC(C)=CCO [farnesol, 3,7,11-trimethyldodeca-2,6,10-trienol]
MIC (relevant micro-organism; literature values): ca. 25 μg.ml^−1

Oc1cc(Cl)ccc1Oc1ccc(Cl)cc1Cl [triclosan, 2′,4,4′-trichloro,2-hydroxy-diphenyl ether]
MIC (relevant micro-organism; literature values): 0.01 to 10 µg/mL

CCO [ethanol]
MIC (relevant micro-organism; stated by contrast, no source given): greater than 1 mg.ml^−1

O=C(O)CN(CCN(CC(=O)O)CC(=O)O)CCN(CC(=O)O)CC(=O)O [DTPA, diethylenetriaminepentaacetic acid]
"micro-molar active" criterion (significant inhibition of growth, at least 30%, at 3×10^−6 mol.dm^−3 or less) [1]: capable of achieving significant inhibition; also recorded: meet the criterion | Inhibition of growth (%) [1]: 56.5%
